According to US20260069588A1, “VEPDEGESTRANT FOR USE IN TREATING CANCER” (Arvinas Operation, Inc., priority 2022, published 2026):

Assay: FIH Study Part A dose escalation: adverse events
From the text: TEAEs and TRAEs from the clinical study database were coded to system organ class and preferred term using MedDRA version 22.0 and SAEs from the centralized safety database were coded using MedDRA version 25.0. The severity of adverse events was graded according to the NCI CTCAE version 5.0.

For `O=C1CC[C@H](N2Cc3cc(N4CCN(CC5CCN(c6ccc([C@@H]7c8ccc(O)cc8CC[C@@H]7c7ccccc7)cc6)CC5)CC4)ccc3C2=O)C(=O)N1` [Compound A, (S)-3-(5-(4-((1-(4-((1R,2S)-6-hydroxy-2-phenyl-1,2,3,4-tetrahydronaphthalen-1-yl)phenyl)piperidin-4-yl)methyl)piperazin-1-yl)-1-oxoisoindolin-2-yl)piperidine-2,6-dione], the “TRAE Nausea” value (200 mg (N=8)) was 2 n, the “TRAE Vomiting” value (200 mg (N=8)) was 1 n and the “TEAE Alanine aminotransferase increased” value (360 mg (N=15)) was 1 n. The “TEAE Arthralgia” value (360 mg (N=15)) was 2 n, the “TEAE Aspartate aminotransferase increased” value (360 mg (N=15)) was 0 n and the “TEAE Back pain” value (360 mg (N=15)) was 2 n. For the same compound, the “TEAE Constipation” value (360 mg (N=15)) was 5 n, the “TEAE Decreased appetite” value (360 mg (N=15)) was 4 n and the “TEAE Diarrhea” value (360 mg (N=15)) was 4 n. The “TEAE Dizziness” value (360 mg (N=15)) was 2 n, the “TEAE Fatigue” value (360 mg (N=15)) was 4 n and the “TEAE Headache” value (360 mg (N=15)) was 4 n. The “TEAE Hot flush” value (360 mg (N=15)) was 2 n, the “TEAE Hyperglycemia” value (360 mg (N=15)) was 2 n and the “TEAE Insomnia” value (360 mg (N=15)) was 1 n. The “TEAE Nausea” value (360 mg (N=15)) was 4 n, the “TEAE Pain in extremity” value (360 mg (N=15)) was 1 n and the “TEAE Vomiting” value (360 mg (N=15)) was 5 n. For the same compound, the “TRAE Arthralgia” value (360 mg (N=15)) was 0 n, the “TRAE Constipation” value (360 mg (N=15)) was 3 n and the “TRAE Decreased appetite” value (360 mg (N=15)) was 2 n. For the same compound, the “TRAE Fatigue” value (360 mg (N=15)) was 3 n, the “TRAE Hot flush” value (360 mg (N=15)) was 1 n and the “TRAE Nausea” value (360 mg (N=15)) was 3 n. The “TRAE Vomiting” value (360 mg (N=15)) was 2 n, the “TEAE Alanine aminotransferase increased” value (500 mg (N=22)) was 2 n and the “TEAE Arthralgia” value (500 mg (N=22)) was 4 n. The “TEAE Aspartate aminotransferase increased” value (500 mg (N=22)) was 1 n, the “TEAE Back pain” value (500 mg (N=22)) was 6 n and the “TEAE Constipation” value (500 mg (N=22)) was 10 n. The “TEAE Decreased appetite” value (500 mg (N=22)) was 2 n, the “TEAE Diarrhea” value (500 mg (N=22)) was 3 n and the “TEAE Dizziness” value (500 mg (N=22)) was 2 n. The “TEAE Fatigue” value (500 mg (N=22)) was 14 n, the “TEAE Headache” value (500 mg (N=22)) was 3 n and the “TEAE Hot flush” value (500 mg (N=22)) was 5 n. The “TEAE Hyperglycemia” value (500 mg (N=22)) was 5 n, the “TEAE Insomnia” value (500 mg (N=22)) was 4 n and the “TEAE Nausea” value (500 mg (N=22)) was 9 n. For the same compound, the “TEAE Pain in extremity” value (500 mg (N=22)) was 5 n, the “TEAE Vomiting” value (500 mg (N=22)) was 4 n and the “TRAE Arthralgia” value (500 mg (N=22)) was 2 n. For the same compound, the “TRAE Constipation” value (500 mg (N=22)) was 3 n, the “TRAE Decreased appetite” value (500 mg (N=22)) was 1 n and the “TRAE Fatigue” value (500 mg (N=22)) was 9 n. For the same compound, the “TRAE Hot flush” value (500 mg (N=22)) was 5 n, the “TRAE Nausea” value (500 mg (N=22)) was 7 n and the “TRAE Vomiting” value (500 mg (N=22)) was 3 n. The “TEAE Alanine aminotransferase increased” value (700 mg (N=4)) was 0 n, the “TEAE Arthralgia” value (700 mg (N=4)) was 0 n and the “TEAE Aspartate aminotransferase increased” value (700 mg (N=4)) was 2 n. The “TEAE Back pain” value (700 mg (N=4)) was 2 n, the “TEAE Constipation” value (700 mg (N=4)) was 1 n and the “TEAE Decreased appetite” value (700 mg (N=4)) was 1 n. For the same compound, the “TEAE Diarrhea” value (700 mg (N=4)) was 1 n, the “TEAE Dizziness” value (700 mg (N=4)) was 2 n and the “TEAE Fatigue” value (700 mg (N=4)) was 2 n. The “TEAE Headache” value (700 mg (N=4)) was 1 n, the “TEAE Hot flush” value (700 mg (N=4)) was 0 n and the “TEAE Hyperglycemia” value (700 mg (N=4)) was 1 n. The “TEAE Insomnia” value (700 mg (N=4)) was 1 n, the “TEAE Nausea” value (700 mg (N=4)) was 2 n and the “TEAE Pain in extremity” value (700 mg (N=4)) was 0 n. The “TEAE Vomiting” value (700 mg (N=4)) was 1 n, the “TRAE Arthralgia” value (700 mg (N=4)) was 0 n and the “TRAE Constipation” value (700 mg (N=4)) was 0 n. For the same compound, the “TRAE Decreased appetite” value (700 mg (N=4)) was 0 n, the “TRAE Fatigue” value (700 mg (N=4)) was 2 n and the “TRAE Hot flush” value (700 mg (N=4)) was 0 n. The “TRAE Nausea” value (700 mg (N=4)) was 1 n, the “TRAE Vomiting” value (700 mg (N=4)) was 0 n and the “Grade 4 or Grade 5 TRAEs” value (6 Jun 2023) was “no Grade 4 or Grade 5 TRAEs”. The “Grade 1 TEAEs” value (6 Jun 2023, N=83) was 34.9%, the “Grade 1 TRAEs” value (6 Jun 2023, N=83) was 41.0% and the “Grade 2 TEAEs” value (6 Jun 2023, N=83) was 41.0%. For the same compound, the “Grade 2 TRAEs” value (6 Jun 2023, N=83) was 24.1%, the “Grade 3 TEAEs” value (6 Jun 2023, N=83) was 16.9% and the “Grade 3 TRAE electrocardiogram QT prolonged” value (6 Jun 2023, N=83) was 2 patients. The “Grade 4 TEAEs” value (6 Jun 2023, N=83) was 2.4%, the “Grade 5 TEAE” value (6 Jun 2023, N=83) was 1.2% and the “TEAE of Grade ≥3” value (6 Jun 2023, N=83) was 20.5%. The “patients with Grade 3 TRAEs” value (6 Jun 2023, N=83) was 7.2%, the “patients with at least 1 TEAE” value (6 Jun 2023, N=83) was 96.4% and the “patients with at least 1 TRAE” value (6 Jun 2023, N=83) was 72.3%. For the same compound, the SAEs (6 Jun 2023, N=83, 11) was 13.3%, the deaths (33 of 83 participants) was 39.8% and the “SAE Procedural pain, Grade” value (Patient 1, 30 mg QD, onset day 30, Not related) was 3. The “SAE Humerus fracture, Grade” value (Patient 2, 250 mg BID, onset day 59, Not related) was 3, the “SAE Embolism venous, Grade” value (Patient 3, 360 mg QD, onset day 42, Possibly related, SUSAR) was 3 and the “SAE Colitis, Grade” value (Patient 4, 200 mg QD) was 1. The “SAE Neutrophil count decreased, Grade” value (Patient 4, 200 mg QD) was 4, the “SAE Stomatitis, Grade” value (Patient 4, 200 mg QD, onset day 79, Not related) was 3 and the “SAE Malignant pleural effusion, Grade” value (Patient 5, 250 mg BID, onset day 10) was 3. The “SAE Cardiac arrest, Grade” value (Patient 5, 250 mg BID, onset day 26, Not related) was 5, the “SAE Embolism, Grade” value (Patient 6, 360 mg QD, onset day 54, Unlikely related) was 3 and the “SAE Hypoglycemia, Grade” value (Patient 7, 500 mg QD, onset day 49, Not related) was 4. For the same compound, the “SAE Acute kidney injury, Grade” value (Patient 8, 100 mg QD, onset day 118, Not related) was 3, the “TEAE Alanine aminotransferase increased” value (Total (N=78)) was 8 n and the “TEAE Arthralgia” value (Total (N=78)) was 14 n. For the same compound, the “TEAE Aspartate aminotransferase increased” value (Total (N=78)) was 11 n, the “TEAE Back pain” value (Total (N=78)) was 13 n and the “TEAE Constipation” value (Total (N=78)) was 24 n. For the same compound, the “TEAE Decreased appetite” value (Total (N=78)) was 12 n, the “TEAE Diarrhea” value (Total (N=78)) was 13 n and the “TEAE Dizziness” value (Total (N=78)) was 8 n. For the same compound, the “TEAE Fatigue” value (Total (N=78)) was 26 n, the “TEAE Headache” value (Total (N=78)) was 13 n and the “TEAE Hot flush” value (Total (N=78)) was 11 n. The “TEAE Hyperglycemia” value (Total (N=78)) was 10 n, the “TEAE Insomnia” value (Total (N=78)) was 9 n and the “TEAE Nausea” value (Total (N=78)) was 26 n. The “TEAE Pain in extremity” value (Total (N=78)) was 10 n, the “TEAE Vomiting” value (Total (N=78)) was 14 n and the “TRAE Arthralgia” value (Total (N=78)) was 8 n. For the same compound, the “TRAE Constipation” value (Total (N=78)) was 10 n, the “TRAE Decreased appetite” value (Total (N=78)) was 8 n and the “TRAE Fatigue” value (Total (N=78)) was 17 n. The “TRAE Hot flush” value (Total (N=78)) was 8 n, the “TRAE Nausea” value (Total (N=78)) was 20 n and the “TRAE Vomiting” value (Total (N=78)) was 8 n. The “Grade 4 or Grade 5 TRAEs” value (cut-off 6 Jun 2022) was “no Grade 4 or Grade 5 TRAEs”, the “patients reporting SAEs” value (cut-off 6 Jun 2022) was 8 of 78 patients and the “total SAEs” value (cut-off 6 Jun 2022) was 11 SAEs. For the same compound, the “Grade 1 TEAEs” value (cut-off 6 Jun 2022, N=78) was 34.6%, the “Grade 1 TRAEs” value (cut-off 6 Jun 2022, N=78) was 42.3% and the “Grade 2 TEAEs” value (cut-off 6 Jun 2022, N=78) was 39.7%. The “Grade 2 TRAEs” value (cut-off 6 Jun 2022, N=78) was 21.8%, the “Grade 3 TEAEs” value (cut-off 6 Jun 2022, N=78) was 11.5% and the “Grade 3 hypertension” value (cut-off 6 Jun 2022, N=78) was 2 patients. For the same compound, the “Grade 4 TEAEs” value (cut-off 6 Jun 2022, N=78) was 3.8%, the “Grade 5 TEAE” value (cut-off 6 Jun 2022, N=78) was 1.3% and the “TEAE of Grade ≥3” value (cut-off 6 Jun 2022, N=78) was 16.7%. The “patients with Grade 3 TRAEs” value (cut-off 6 Jun 2022, N=78) was 5.1%, the “patients with at least 1 TEAE” value (cut-off 6 Jun 2022, N=78) was 91.0% and the “patients with at least 1 TRAE” value (cut-off 6 Jun 2022, N=78) was 69.2%. For the same compound, the “TEAE leading to discontinuation” value (five of 83 patients) was 6.0%.
